Measurements taken from patent publication US8715635B2, “Frictionless molecular rotary motors” (Technion Research & Development Foundation Limited, priority 2007, dated 2014).
In brackets after ≈: the same amount, converted by molar mass. Read-outs that look alike come from different tables or passages of the source.

Legend:
[1] = Isothermal titration calorimetry (ITC) of CB[6] host with dicationic guest molecules; type: binding; details: in water at 30° C.
Description: Isothermal titration calorimetry (ITC) was previously employed to study complexation parameters of Compound 1 [63]. Measurement of the host-guest binding thermodynamic profile using ITC provides in a single experiment not only the binding constants (Kb) and binding stoichiometry (n), but also the differences of enthalpy (ΔH) and entropy (ΔS) of binding.
The experiment was carried out by loading the ITC sample cell with saturated aqueous solution of Compound 1 (1.4 ml) and titrating it with a neutral aqueous solution of the dicationic dihydrochloride salts of various exemplary guest molecules at concentrations that ranged from 3.3 mM to 5.0 mM. The heat generated during each injection was recorded (FIG. 1) and the thermodynamic parameters were acquired by non-linear least squares fit of the calorimetric titration data to a one-site binding model (Table 2).
A saturated solution of Compound 1 (0.4 mM) in water at pH=7 was prepared by stirring an excess of finely powdered Compound 1 overnight at 30° C. and filtering through a 100-μm micro-filter. Solutions of the guest molecules at concentrations of 3.3-6 mM, were prepared and filtered through a 100-μm micro-filter as well. Titration calorimetry measurements were performed with a VP-ITC calorimeter (Microcal, Northampton, Mass.) as previously described. Repeat determinations indicated errors of 3-10% in n, ΔH, degree, and K values over the most favorable concentration range. A solution of Compound 1 was titrated by 29 injections of 6 μL of guest molecule solutions at 30° C. each, and the titration data were analyzed using Origin2000 software.

[2] = cited from earlier work
[3] = Solubility; type: physicochemical; details: water at pH=7, 30° C.
[4] = cited from earlier work; remark: listed apart in the source

SMILES | ΔH of binding [1] [kcal/mol] | ΔS of binding [1] | also measured
Cl.Cl.NCC#CC#CCN1CCCC1 [Compound 5′, N-6-pyrrolidinium-hexa-2,4-diynyl ammonium dichloride] | -4.452 ± 0.057 | 9.29 cal/(mol·K) | 
O=C1N2CN3C(=O)N4CN5C(=O)N6CN7C(=O)N8CN9C(=O)N%10CN%11C(=O)N%12CN%13C(=O)N%14CN1C1C2N2CN%15C(=O)N(CN%16C(=O)N(CN%17C(=O)N(CN%18C(=O)N(CN%19C(=O)N(CN%20C(=O)N(CN1C2=O)C%14C%13%20)C%12C%11%19)C%10C9%18)C8C7%17)C6C5%16)C4C3%15 (stereo not drawn) [CB[7]] |  |  | solubility in aqueous acid ([2]; 3M HCl): about 700 mM
Cl.Cl.NCC#CC#CCN [Compound 4′, Hexa-2,4-diyne-1,6-diammonium dihydrochloride] | -0.696 ± 0.005 | 23.51 | 
C(C#CCN1CCCC1)#CCN1CCCC1.Cl.Cl [Compound 6′, 1,6-Dipyrrolidinium-2,4-hexadiyne dichloride] | -3.718 ± 0.044 | 12.8 cal/(mol·K) | 
O=C1N2CN3C(=O)N4CN5C(=O)N6CN7C(=O)N8CN9C(=O)N%10CN1C1C2N2CN%11C(=O)N(CN%12C(=O)N(CN%13C(=O)N(CN%14C(=O)N(CN1C2=O)C%10C9%14)C8C7%13)C6C5%12)C4C3%11 (stereo not drawn) [CB[5]] |  |  | solubility in aqueous acid ([2]; 3M HCl): about 60 mM
O=C1N2CN3C(=O)N4CN5C(=O)N6CN7C(=O)N8CN9C(=O)N%10CN%11C(=O)N%12CN1C1C2N2CN%13C(=O)N(CN%14C(=O)N(CN%15C(=O)N(CN%16C(=O)N(CN%17C(=O)N(CN1C2=O)C%12C%11%17)C%10C9%16)C8C7%15)C6C5%14)C4C3%13 (stereo not drawn) [Compound 1, Cucurbit[6]uril] |  |  | concentration of saturated solution in water [3]: 400 µM; solubility in aqueous acid ([2]; HCO2H/H2O (1:1)): 61 mM (≈ 60.8 mg/mL); pKa value of the conjugate acid [4]: 3.02
NCCCCCCN [Compound 3′, 1,6-diaminohexane] | -13.760 ± 0.090 | -20.4 cal/(mol·K) | ΔS of binding (entropy term, text) ([1]; text values in J): −85.77 J/mol.° K; ΔH binding enthalpy ([1]; text values in KJ): -13.76 kcal/mol
